Each compound was assayed against T1, mTOR (Homo sapiens, UniProt P42345) (assay: In Vitro mTOR Kinase Assay (Echo), Test (a)(ii)). Details: table of enzyme assay Test (a)(ii); read-out: Test (a)(ii) IC50.
T1 construct: FLAG; made in house
Assay type: biochemical
How it was run: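 Inhibition of truncated mTOR (1362-2549, FLAG-tagged, purified from stably transfected HEK293 cells) is measured as reduced AlphaScreen signal from a phospho-T389-recognising antibody bound to the biotinylated peptide product. Kinase incubation lasts 2 hours at room temperature. Potency is given as IC50.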

T1 sequence (P42345 1362-2549): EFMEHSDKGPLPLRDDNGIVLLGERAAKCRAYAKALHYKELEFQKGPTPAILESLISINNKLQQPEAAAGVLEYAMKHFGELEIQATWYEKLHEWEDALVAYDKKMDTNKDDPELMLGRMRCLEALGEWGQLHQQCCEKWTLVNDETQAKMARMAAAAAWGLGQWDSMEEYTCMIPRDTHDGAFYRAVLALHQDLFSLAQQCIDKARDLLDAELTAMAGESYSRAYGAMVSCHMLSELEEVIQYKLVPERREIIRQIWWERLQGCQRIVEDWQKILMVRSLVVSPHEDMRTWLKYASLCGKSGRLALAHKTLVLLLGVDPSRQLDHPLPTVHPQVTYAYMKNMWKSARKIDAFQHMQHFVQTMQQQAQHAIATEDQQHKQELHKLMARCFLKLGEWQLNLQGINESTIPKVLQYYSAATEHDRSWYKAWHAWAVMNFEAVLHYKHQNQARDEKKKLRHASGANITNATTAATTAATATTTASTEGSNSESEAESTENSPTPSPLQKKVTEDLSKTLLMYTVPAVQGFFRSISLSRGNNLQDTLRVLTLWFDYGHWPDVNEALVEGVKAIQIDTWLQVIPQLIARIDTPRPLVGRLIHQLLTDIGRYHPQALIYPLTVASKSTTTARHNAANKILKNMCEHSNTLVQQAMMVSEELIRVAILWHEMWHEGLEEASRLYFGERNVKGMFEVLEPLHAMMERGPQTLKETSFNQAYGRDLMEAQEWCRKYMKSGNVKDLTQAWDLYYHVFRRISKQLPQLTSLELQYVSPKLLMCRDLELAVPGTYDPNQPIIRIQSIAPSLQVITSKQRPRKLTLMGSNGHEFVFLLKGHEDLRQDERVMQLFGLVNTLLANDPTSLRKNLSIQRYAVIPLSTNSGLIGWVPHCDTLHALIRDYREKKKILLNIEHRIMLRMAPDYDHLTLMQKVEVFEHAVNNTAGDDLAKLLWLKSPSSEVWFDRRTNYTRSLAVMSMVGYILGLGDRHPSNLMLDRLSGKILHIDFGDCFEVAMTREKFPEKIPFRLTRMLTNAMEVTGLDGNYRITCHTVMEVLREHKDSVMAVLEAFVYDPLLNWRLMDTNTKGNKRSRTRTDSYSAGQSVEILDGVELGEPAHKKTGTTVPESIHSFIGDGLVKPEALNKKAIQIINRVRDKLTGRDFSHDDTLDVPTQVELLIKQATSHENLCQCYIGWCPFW

| Compound | IC50 |
| --- | --- |
| Cc1csc(S(=O)(=O)C2(c3cc(N4CCOCC4)nc(-c4ccc(NC(=O)NC(C)C)cc4)n3)CC2)n1 [Example 42h, 1-[4-[4-[1-[(4-methyl-1,3-thiazol-2-yl)sulfonyl]cyclopropyl]-6-morpholin-4-ylpyrimidin-2-yl]phenyl]-3-propan-2-ylurea] | 4.12 nM |
| C[C@H]1COCCN1c1cc(C2(S(=O)(=O)CCCO)CCC2)nc(-c2ccc(NC(=O)NC3CC3)cc2)n1 [Example 43, 3-Cyclopropyl-1-[4-[4-[1-(3-hydroxypropylsulfonyl)cyclobutyl]-6-[(3S)-3-methylmorpholin-4-yl]pyrimidin-2-yl]phenyl]urea] | 5.39 nM |
| CNC(=O)Nc1ccc(-c2nc(N3CCOC[C@@H]3C)cc(C3(S(=O)(=O)CCCO)CCC3)n2)cc1 [Example 43a, 1-[4-[4-[1-(3-hydroxypropylsulfonyl)cyclobu-tyl]-6-[(3S)-3-methylmorpholin-4-yl]pyrimidin-2-yl]phenyl]-3-methylurea] | 4.79 nM |
| C[C@H]1COCCN1c1cc(C2(S(=O)(=O)CCCO)CCC2)nc(-c2ccc(NC(=O)NCCO)cc2)n1 [Example 43b, 3-(2-hydroxyethyl)-1-[4-[4-[1-(3-hydroxypropylsulfonyl)cyclobu-tyl]-6-[(3S)-3-methylmorpholin-4-yl]pyrimidin-2-yl]phenyl]urea] | 7.51 nM |
| C[C@H]1COCCN1c1cc(C2(S(=O)(=O)CCCO)CCC2)nc(-c2ccc(NC(=O)NCCC#N)cc2)n1 [Example 43c, 3-(2-cyanoethyl)-1-[4-[4-[1-(3-hydroxypropylsulfonyl)cyclobu-tyl]-6-[(3S)-3-methylmorpholin-4-yl]pyrimidin-2-yl]phenyl]urea] | 28.8 nM |
| C[C@H]1COCCN1c1cc(C2(S(=O)(=O)CCCO)CCC2)nc(-c2ccc(NC(=O)Nc3cnn(C)c3)cc2)n1 [Example 43d, 1-[4-[4-[1-(3-hydroxypropylsulfonyl)cyclobu-tyl]-6-[(3S)-3-methylmorpholin-4-yl]pyrimidin-2-yl]phenyl]-3-(1-methylpyrazol-4-yl)urea] | 11 nM |
| C[C@H]1COCCN1c1cc(C2(S(=O)(=O)CCCO)CCC2)nc(-c2ccc(NC(=O)NCc3ncc[nH]3)cc2)n1 [Example 43e, 1-[4-[4-[1-(3-hydroxypropylsulfonyl)cyclobu-tyl]-6-[(3S)-3-methylmorpholin-4-yl]pyrimidin-2-yl]phenyl]-3-(1H-imidazol-2-ylmethyl)urea] | 188 nM |
| C[C@H]1COCCN1c1cc(C2(S(=O)(=O)CCCO)CCCC2)nc(-c2ccc(NC(=O)NC3CC3)cc2)n1 [Example 43f, 3-cyclopropyl-1-[4-[4-[1-(3-hydroxypropyl-sulfonyl)cyclopen-tyl]-6-[(3S)-3-methylmorpholin-4-yl]pyrimidin-2-yl]phenyl]urea] | 39.2 nM |
| C[C@H]1COCCN1c1cc(C2(S(=O)(=O)CCCO)CCCC2)nc(-c2ccc(NC(=O)NCCO)cc2)n1 [Example 43g, 3-(2-hydroxyethyl)-1-[4-[4-[1-(3-hydroxypropyl-sulfonyl)cyclopen-tyl]-6-[(3S)-3-methylmorpholin-4-yl]pyrimidin-2-yl]phenyl]urea] | 29 nM |
| C[C@H]1COCCN1c1cc(C2(S(=O)(=O)CCCO)CCCC2)nc(-c2ccc(NC(=O)NCCC#N)cc2)n1 [Example 43h, 3-(2-cyanoethyl)-1-[4-[4-[1-(3-hydroxypropyl-sulfonyl)cyclopen-tyl]-6-[(3S)-3-methylmorpholin-4-yl]pyrimidin-2-yl]phenyl]urea] | 133 nM |
| C[C@H]1COCCN1c1cc(C2(S(=O)(=O)CCCO)CCCC2)nc(-c2ccc(NC(=O)NCCCO)cc2)n1 [Example 43i, 3-(3-hydroxypropyl)-1-[4-[4-[1-(3-hydroxypropyl-sulfonyl)cyclopen-tyl]-6-[(3S)-3-methylmorpholin-4-yl]pyrimidin-2-yl]phenyl]urea] | 102 nM |
| CCNC(=O)Nc1ccc(-c2nc(N3CCOC[C@@H]3C)cc(C3(S(=O)(=O)CCCO)CCC3)n2)cc1 [Example 43j, 1-ethyl-3-[4-[4-[1-(3-hydroxypropylsulfonyl)cyclobu-tyl]-6-[(3S)-3-methylmorpholin-4-yl]pyrimidin-2-yl]phenyl]urea] | 12 nM |
| CCCNC(=O)Nc1ccc(-c2nc(N3CCOC[C@@H]3C)cc(C3(S(=O)(=O)CCCO)CCC3)n2)cc1 [Example 43k, 3-[4-[4-[1-(3-hydroxypropylsulfonyl)cyclobu-tyl]-6-[(3S)-3-methylmorpholin-4-yl]pyrimidin-2-yl]phenyl]-1-propylurea] | 25.7 nM |
| C[C@H]1COCCN1c1cc(C2(S(=O)(=O)CCCO)CCC2)nc(-c2ccc(NC(=O)NCCCO)cc2)n1 [Example 43l, 3-(3-hydroxypropyl)-1-[4-[4-[1-(3-hydroxypropylsulfonyl)cyclobu-tyl]-6-[(3S)-3-methylmorpholin-4-yl]pyrimidin-2-yl]phenyl]urea] | 23.6 nM |
| C[C@H]1COCCN1c1cc(C2(S(=O)(=O)CCCO)CCC2)nc(-c2ccc(NC(=O)Nc3ccon3)cc2)n1 [Example 43m, 1-[4-[4-[1-(3-hydroxypropylsulfonyl)cyclobu-tyl]-6-[(3S)-3-methylmorpholin-4-yl]pyrimidin-2-yl]phenyl]-3-(1,2-oxazol-3-yl)urea] | 5.31 nM |
| C[C@H]1COCCN1c1cc(C2(S(=O)(=O)CCCO)CCC2)nc(-c2ccc(NC(=O)NCCF)cc2)n1 [Example 43n, 3-(2-fluoroethyl)-1-[4-[4-[1-(3-hydroxypropylsulfonyl)cyclobu-tyl]-6-[(3S)-3-methylmorpholin-4-yl]pyrimidin-2-yl]phenyl]urea] | 11.9 nM |
| C[C@H]1COCCN1c1cc(C2(S(=O)(=O)CCCO)CCC2)nc(-c2ccc(NC(=O)NCC(F)F)cc2)n1 [Example 43o, 3-(2,2-difluoroethyl)-1-[4-[4-[1-(3-hydroxypropylsulfonyl)cyclobu-tyl]-6-[(3S)-3-methylmorpholin-4-yl]pyrimidin-2-yl]phenyl]urea] | 15.7 nM |
| C[C@H]1COCCN1c1cc(C2(S(=O)(=O)CCCO)CCC2)nc(-c2ccc(NC(=O)NC(C)(C)CO)cc2)n1 [Example 43p, 3-(1-hydroxy-2-methylpropan-2-yl)-1-[4-[4-[1-(3-hydroxypropylsulfonyl)cyclobu-tyl]-6-[(3S)-3-methylmorpholin-4-yl]pyrimidin-2-yl]phenyl]urea] | 55.5 nM |
| C[C@@H](CO)NC(=O)Nc1ccc(-c2nc(N3CCOC[C@@H]3C)cc(C3(S(=O)(=O)CCCO)CCC3)n2)cc1 [Example 43q, 3-[(2S)-1-hydroxypropan-2-yl]-1-[4-[4-[1-(3-hydroxypropylsulfonyl)cyclobu-tyl]-6-[(3S)-3-methylmorpholin-4-yl]pyrimidin-2-yl]phenyl]urea] | 28 nM |
| C[C@H](CO)NC(=O)Nc1ccc(-c2nc(N3CCOC[C@@H]3C)cc(C3(S(=O)(=O)CCCO)CCC3)n2)cc1 [Example 43r, 3-[(2R)-1-hydroxypropan-2-yl]-1-[4-[4-[1-(3-hydroxypropylsulfonyl)cyclobu-tyl]-6-[(3S)-3-methylmorpholin-4-yl]pyrimidin-2-yl]phenyl]urea] | 57.7 nM |
| C[C@H]1COCCN1c1cc(C2(S(=O)(=O)CCCO)CCC2)nc(-c2ccc(NC(=O)Nc3ncns3)cc2)n1 [Example 43s, 1-[4-[4-[1-(3-hydroxypropylsulfonyl)cyclobu-tyl]-6-[(3S)-3-methylmorpholin-4-yl]pyrimidin-2-yl]phenyl]-3-(1,2,4-thiadiazol-5-yl)urea] | 6.29 nM |
| C[C@H]1COCCN1c1cc(C2(S(=O)(=O)CCCO)CCC2)nc(-c2ccc(NC(=O)Nc3nccs3)cc2)n1 [Example 43t, 1-[4-[4-[1-(3-hydroxypropylsulfonyl)cyclobu-tyl]-6-[(3S)-3-methylmorpholin-4-yl]pyrimdiin-2-yl]phenyl]-3-(1,3-thiazol-2-yl)urea] | 5.45 nM |
| CC(=O)NCCS(=O)(=O)C1(c2cc(N3CCOC[C@@H]3C)nc(-c3ccc(NC(=O)NC4CC4)cc3)n2)CC1 [Example 44, N-[2-[1-[2-[4-(Cyclopropylcarbamoylamino)phenyl]-6-[(3S)-3-methylmorpholin-4-yl]pyrimidin-4-yl]cyclopropyl]sulfonylethyl]acetamide] | 23.4 nM |
| NC(=O)CS(=O)(=O)C1(c2cc(N3CCOCC3)nc(-c3ccc(NC(=O)NC4CC4)cc3)n2)CC1 [Example 46, 2-[1-[2-[4-(Cyclopropylcarbamoylamino)phenyl]-6-morpholin-4-ylpyrimidin-4-yl]cyclopropyl]sulfonylacetamide] | 4.56 nM |
| CNC(=O)CS(=O)(=O)C1(c2cc(N3CCOCC3)nc(-c3ccc(NC(=O)NC4CC4)cc3)n2)CC1 [Example 46a] | 12.6 nM |
| O=C(Nc1ccc(-c2nc(N3CCOCC3)cc(C3(S(=O)(=O)CCO)CC3)n2)cc1)NC1CC1 [Example 47, 3-Cyclopropyl-1-[4-[4-[1-(2-hydroxyethylsulfonyl)cyclopropyl]-6-morpholin-4-ylpyrimidin-2-yl]phenyl]urea] | 15.5 nM |
| CNC(=O)Nc1ccc(-c2nc(N3CCOCC3)cc(C3(S(=O)(=O)CCO)CC3)n2)cc1 [Example 47a, 1-[4-[4-[1-(2-hydroxyethylsulfonyl)cyclopropyl]-6-morpholin-4-ylpyrimidin-2-yl]phenyl]-3-methylurea] | 5.4 nM |
| CCNC(=O)Nc1ccc(-c2nc(N3CCOCC3)cc(C3(S(=O)(=O)CCO)CC3)n2)cc1 [Example 47b, 3-ethyl-1-[4-[4-[1-(2-hydroxyethylsulfonyl)cyclopropyl]-6-morpholin-4-ylpyrimidin-2-yl]phenyl]urea] | 14.9 nM |
| CNC(=O)Nc1ccc(-c2nc(N3CCOC[C@@H]3C)cc(C3(S(=O)(=O)c4ccc(C(=O)N(C)C)cn4)CC3)n2)cc1 [Example 49, N,N-Dimethyl-6-[1-[2-[4-(methylcarbamoylamino)phenyl]-6-[(3S)-3-methylmorpholin-4-yl]pyrimidin-4-yl]cyclopropyl]sulfonylpyridine-3-carboxamide] | 1.87 nM |
| C[C@H]1COCCN1c1cc(C2(S(=O)(=O)c3ccc(C(=O)N(C)C)cn3)CC2)nc(-c2ccc(NC(=O)NC3CC3)cc2)n1 [Example 49a] | 2.67 nM |
